Assay: Stability of Latanoprost in PEA III formulations and compatibility with film casting, evaluated by 1H NMR
Type: physicochemical
Description: For film casting, solutions were prepared in a suitable solvent resulting in solutions with viscosities low enough for solvent casting. Exact amounts of PEA-III ac Bz and API (Active Pharmaceutical Ingredient) were weighed and dissolved with a suitable solvent. The API payload is determined over the polymer weight. API payload of 10% was used. The API/polymer/solvent formulations were poured into petri dishes (4 cm diameter) and covered to reduce evaporation rates of the solvent and prevent formation of air bubbles. The solvent was evaporated for 2 days at TT in a fumehood followed by 2 days @ 750 mBar, 1 day @ 500 mBar and 2 days at full vacuum. From the resulting films, discs were cut with diameter of 10 mm and approximate thicknesses of 500 μm.
A sample was prepared by dissolving ˜10 mg of material in 1 ml of deuterated THF in a 10 ml glass vial. The sample was allowed sufficient time for complete dissolution. ^1H NMR spectra was recorded on a 300 MHz Bruker Avance 300, ARX 400 NMR instrument.
Stability of Latanoprost in formulations and compatibility with film casting procedure was evaluated by ^1H NMR.

Stability of Latanoprost (degradation of API) by 1H NMR (PEA III formulations with Latanoprost stored @ 4° C. for 3 months): did not indicate any degradation
Stability of Latanoprost (degradation of API) by 1H NMR (initial PEA III formulations with Latanoprost, after film casting): did not indicate any degradation
Structure (SMILES): CC(C)OC(=O)CCC/C=C\C[C@@H]1[C@@H](CC[C@@H](O)CCc2ccccc2)[C@H](O)C[C@@H]1O [Latanoprost]
